Source: patent US8476255B2, “Histone deacetylase inhibitors” (Orchid Chemicals & Pharmaceuticals Limited, priority 2007, dated 2013)

Columns and labels:
NCIH460 (lung) cells = test: Anti-cancer screen (MTT), NCIH460; type: cell-based; conditions: Homo sapiens, NCI-H460, NCIH460, 48 hours, MTT; for GI50: read-out: Cell growth inhibition NCIH460 (Lung) GI50; for LC50: read-out: Cell growth inhibition NCIH460 (Lung) LC50; for IC (TGI): read-out: Cell growth inhibition NCIH460 (Lung) TGI
In short: (§1)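 Cells in DMEM with 10% FBS were seeded for 24 h, then exposed for 48 h to compounds at 0.01, 0.1, 1, 10 and 100 μM final, in triplicate. Viability was read by MTT (3 h, A570 after DMSO solubilisation), referenced to a pre-dosing T0 plate, with SAHA as standard.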

HCT 116 (colon) cells = test: Anti-cancer screen (MTT), HCT 116; type: cell-based; conditions: Homo sapiens, HCT-116, HCT116, 48 hours, MTT; for CC50: read-out: Cell growth inhibition HCT116 (Colon) LC50; for IC (TGI): read-out: Cell growth inhibition HCT116 (Colon) TGI; for GI50: read-out: Cell growth inhibition HCT116 (Colon) GI50
In short: as §1

U251 (glioma) cells = test: Anti-cancer screen (MTT), U251; type: cell-based; conditions: Homo sapiens, U-251, U251, 48 hours, MTT; for GI50: read-out: Cell growth inhibition U251 (Glioma) GI50; for LC50 (concentration giving 50% net cell kill relative to the time-zero cell count): read-out: Cell growth inhibition U251 (Glioma) LC50; for IC (TGI): read-out: Cell growth inhibition U251 (Glioma) TGI
In short: as §1

[1] = test system: NCIH460, HCT116 and U251 cells; test: Anti-cancer screen, mean GI50 over cell lines; type: cell-based; conditions: mean over cell lines; read-out: Cell growth inhibition Mean GI50
In short: as §1

[2] = test system: HDAC (Mouse Liver Extract); test: HDAC inhibition assay using Boc-Lys(Ac)-AMC substrate; type: biochemical; conditions: mouse liver enzyme
In short: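 Released AMC measured at 360 nm excitation, 460 nm emission after 15-30 min trypsin development at 37° C. Preceding deacetylation: mouse liver extract with acetylated-lysine AMC substrate, 30 min at 37° C after 5-min preincubation; blanks were buffer alone and substrate alone.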

recombinant HDAC1 enzyme = recombinant HDAC1 enzyme (Homo sapiens (Human), UniProt Q13547); test: HDAC1 inhibitory activity (isoform selectivity); type: biochemical; conditions: read-out: HDAC1 inhibition (IC50)
Experimental: The assay was carried out, as previously described using recombinant HDAC1 enzyme (BIOMOL, USA) and following manufacturer's instructions.

Acetylated histone (H3) = test: Histone (H3) acetylation, sandwich ELISA in HCT116 lysate; type: cell-based; conditions: HCT116, 4 hours
Experimental: (§2) Acetylated histone (H3), acetylated Tubulin and p21 levels were detected in cell lysate by sandwich ELISA method (Cell Signaling Technology, USA, Cat No: 7232, 7204 & 7167 respectively) by following manufacturer's instructions. Briefly, colon cancer cells (HCT116. 10,000/well) were incubated with test compound (1 and 10 μM) or medium (control) for 4 hours at 37° C. in CO2 incubator. The incubation lasted 18 hours for p21 induction. After incubation, cell lysates were prepared in cell lysis buffer by sonication on ice. The lysates were collected after centrifugation and subjected to ELISA test procedure. 100 μL of each diluted cell lysate in dilution buffer (1:1) was added to appropriate capture antibody coated microwells and incubated overnight at 4° C. After washing, 100 μL of detection antibody was added for 1 hour at 37° C. After second washing, 100 μL of HRP-linked secondary antibody was added for 30 min at 37° C. Finally, after appropriate washing, 100 μL of TMB substrate was added for 10 min at 37° C. followed by 100 μL of stop solution. The absorbance of individual wells was read using a spectrophotometer at 450 nm (A450).

acetylated Tubulin = test: Tubulin acetylation, sandwich ELISA in HCT116 lysate; type: cell-based; conditions: HCT116, 4 hours
Experimental: as §2

p21 = p21 induction, sandwich ELISA in HCT116 lysate; type: cell-based; conditions: HCT116, 18 hours
Experimental: as §2

Chain of recombinant HDAC1 enzyme (Q13547 whole entry, canonical isoform): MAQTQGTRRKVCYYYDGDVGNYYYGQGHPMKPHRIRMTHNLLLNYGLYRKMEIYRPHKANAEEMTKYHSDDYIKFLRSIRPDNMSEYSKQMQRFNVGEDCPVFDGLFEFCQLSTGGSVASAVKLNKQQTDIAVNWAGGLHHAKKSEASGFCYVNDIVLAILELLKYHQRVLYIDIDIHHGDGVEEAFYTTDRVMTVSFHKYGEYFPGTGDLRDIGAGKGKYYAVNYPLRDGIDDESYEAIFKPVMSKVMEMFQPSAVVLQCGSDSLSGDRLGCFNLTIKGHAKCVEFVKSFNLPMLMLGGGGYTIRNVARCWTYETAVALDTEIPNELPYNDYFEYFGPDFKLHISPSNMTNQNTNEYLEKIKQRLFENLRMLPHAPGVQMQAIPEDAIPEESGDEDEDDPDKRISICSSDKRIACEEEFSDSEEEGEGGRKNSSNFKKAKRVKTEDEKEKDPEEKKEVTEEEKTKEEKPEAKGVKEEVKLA

SMILES | GI50 (NCIH460 (lung) cells) [µM] | LC50 (NCIH460 (lung) cells) [µM] | IC (TGI) (NCIH460 (lung) cells) [µM] | CC50 (HCT 116 (colon) cells) [µM] | IC (TGI) (HCT 116 (colon) cells) [µM] | GI50 (U251 (glioma) cells) [µM] | LC50 (concentration giving 50% net cell kill relative to the time-zero cell count) (U251 (glioma) cells) [µM] | IC (TGI) (U251 (glioma) cells) [µM] | GI50 [1] [µM] | HDAC inhibition % (1 μM) [2] [%] | HDAC inhibition % (10 μM) [2] [%] | IC50 [2] [µM] | IC50 (recombinant HDAC1 enzyme) [µM] | GI50 (HCT 116 (colon) cells) [µM] | H3 acetylation (Fold increase) (Acetylated histone (H3); 1 μM) | H3 acetylation (Fold increase) (Acetylated histone (H3); 10 μM) | Tubulin acetylation (Fold increase) (acetylated Tubulin; 1 μM) | Tubulin acetylation (Fold increase) (acetylated Tubulin; 10 μM) | P21 induction (Fold increase) (p21; 1 μM) | P21 induction (Fold increase) (p21; 10 μM)
COc1ccc(/C=C(/C(=O)NCc2ccc(C(=O)Nc3ccccc3N)cc2)c2cccc(F)c2)cc1OC [Compound 32, N-(2-Aminophenyl)-4-((3-(3,4-dimethoxyphenyl)-2-(3-fluorophenyl)acrylamido)methyl)benzamide] | 1.8 | > 100 | > 100 | > 100 | 100 | 2.1 | > 100 | 48 | 1.3 | 39.9 | 61.2 | 4.8 | 0.052 | – | – | – | – | – | – | –
CSc1ccc(/C=C(/C(=O)NCc2ccc(C(=O)NO)cc2)c2cccnc2)cc1 [Compound 55, 4-((2-(Pyridin-3-yl)-3-(4-methylthiophenyl)acrylamido)methyl)-N-hydroxybenzamide] | 1 | > 100 | 39 | 48 | 6.2 | 0.2 | 56 | 0.4 | 0.8 | 85.7 | 95.1 | 0.02 | – | 1.1 | 4.2 | 7.7 | 10.4 | 11 | 1.3 | 2.5
COc1ccc(/C=C(/C(=O)NCc2ccc(C(=O)Nc3ccccc3N)cc2)c2ccccc2F)cc1OC [Compound 28, N-(2-Aminophenyl)-4-((3-(3,4-dimethoxyphenyl)-2-(2-fluorophenyl)acrylamido)methyl)benzamide] | 1 | > 100 | > 100 | > 100 | > 100 | 5.5 | > 100 | > 100 | 2.2 | 41.3 | 65.6 | 9.5 | 0.036 | 0.1 | 1.1 | 5.6 | 1.9 | 6.2 | 1.5 | 2.5
COc1ccc(/C=C(/C(=O)NCc2ccc(C(=O)Nc3ccccc3N)cc2)c2ccc(C)cc2)cc1OC [Compound 29, N-(2-Aminophenyl)-4-((3-(3,4-dimethoxyphenyl)-2-(4-methylphenyl)acrylamido)methyl)benzamide] | 3.1 | > 100 | > 100 | > 100 | 40 | 11 | > 100 | 45 | 4.8 | 34.2 | 52.8 | 34 | 0.057 | 0.3 | – | – | – | – | – | –
COc1ccc(/C=C(/C(=O)NCc2ccc(C(=O)Nc3ccccc3N)cc2)c2ccccc2)cc1OC [Compound 31, N-(2-Aminophenyl)-4-((3-(3,4-dimethoxyphenyl)-2-phenylacrylamido)methyl)benzamide] | 1.1 | > 100 | > 100 | > 100 | 40 | 3.8 | > 100 | 50 | 1.6 | 36.5 | 65.5 | 7.9 | 0.054 | 0.02 | 0.9 | 1.7 | 1.2 | 2.1 | 1.2 | 2.8
CSc1ccc(/C=C(/C(=O)NCc2ccc(C(=O)Nc3ccccc3N)cc2)c2ccc(C(F)(F)F)cc2)cc1 [Compound 21, N-(2-Aminophenyl)-4-((3-(4-methylthiophenyl)-2-(4-trifluoromethylphenyl)acrylamido)methyl)benzamide] | 32 | 78 | 46 | 82 | 56 | 52 | 96 | 65 | 39.7 | 7.0 | 24.8 | – | – | 35 | – | – | – | – | – | –
COC(=O)c1ccc(/C=C(/C(=O)NCc2ccc(C(=O)Nc3ccccc3N)cc2)c2cccs2)cc1 [Compound 36, N-(2-Aminophenyl)-4-((3-(4-carbmethoxyphenyl)-2-(thiophen-2-yl)acrylamido)methyl)benzamide] | 20 | > 100 | > 100 | > 100 | 35 | 18 | 90 | 50 | 12.9 | 30.5 | 31.9 | – | – | 0.7 | – | – | – | – | – | –
Nc1ccccc1NC(=O)c1ccc(CNC(=O)/C(=C/c2ccc(F)cc2Cl)c2ccccc2)cc1 [Compound 9, N-(2-Aminophenyl)-4-((3-(2-chloro-4-fluorophenyl)-2-(phenyl)acrylamido)methyl)benzamide] | 90 | > 100 | > 100 | > 100 | 94 | 60 | > 100 | 79 | 69.3 | 12.1 | 32.1 | – | – | 58 | – | – | – | – | – | –
